The results in this text go back to patent US20240083910A1, “AMIDO-SUBSTITUTED PYRIDYL COMPOUNDS AND METHODS OF USE THEREOF FOR THE TREATMENT OF HERPESVIRUSES” (Merck Sharp & Dohme LLC, priority 2020, published 2024).

Assay [1] deals with HSV-1 Strain F. Put plainly: Viral qPCR assay, HSV-1. Type of assay: cell-based, Herpes Simplex Virus type 1. The following applies: Human alphaherpesvirus 1, 72 h, Vero or MRC5 cells, 0.0005-0.004 pfu/cell, growth medium, viral genome copies by qPCR, read-out: HSV1 Cell (EC50). As for the experimental part:
(§1) MRC5 cells, Vero cells, and MeWo cells were obtained from ATCC, and were maintained at 37° C./5% CO2/90% relative humidity in Minimal Essential Medium with 10% fetal bovine serum, […] L-glutamine, 100 units/ml penicillin and 100 ug/ml streptomycin. Assay plates were prepared by dispensing compounds dissolved in DMSO into wells of 384 well collagen-coated plates using an ECHO acoustic dispenser. Each compound was tested in a 10-point, serial 3-fold dilution. Controls included uninfected cells and infected cells treated only with DMSO. Assays were initiated by mixing selected cells, in suspension, with virus, and dispensing 50 μl/well infected cells to pre-plated compounds. Plates were incubated at 37° C./5% CO2/90% relative humidity for ˜72 hrs to permit genomic replication, and infected cells were lysed by the addition of an equal volume of lysis buffer (10 mM Tris-HCl, pH8, 50 mM KCl, 2 mM MgCl2, 0.45% NP-40, 0.45% Tween-20, and 100 μg/ml proteinase K). An aliquot of the lysate was transferred to a 384-well PCR plate and incubated at 56° C. for 1 hour and then at 95° C. for 10 min. Levels of a viral gene and of the cellular control, PPIA (Thermo Fisher Assay ID=Hs04194521_s1), were measured in separate 10 ul qPCR assays using TaqMan® Gene Expression Master Mix (Applied Biosystems), and an 7900HT Fast Real-Time PCR System with 384-Well Block Module. 7-point, serial 10-fold dilutions of a plasmid standard were run on each plate to generate a standard curve, and genome copies numbers were calculated by plotting experimental Ct onto linear regression of the standard curve. Viral genome copy numbers were normalized by cellular control copy number, and compound effects were normalized to the window defined by the controls. Calculated % effects were fit using a 4-parameter algorithm, and EC50 was reported.
(§2) MRC5 cells, Vero cells, and MeWo cells were obtained from ATCC, and were maintained at 37° C./5% CO2/90% relative humidity in Minimal Essential Medium with 10% fetal bovine serum, […] L-glutamine, 100 units/ml penicillin and 100 ug/ml streptomycin. Assay plates were prepared by dispensing compounds dissolved in DMSO into wells of 384 well collagen-coated plates using an ECHO acoustic dispenser. Each compound was tested in a 10-point, serial 3-fold dilution. Controls included uninfected cells and infected cells treated only with DMSO. Assays were initiated by mixing selected cells, in suspension, with virus, and dispensing 50 μl/well infected cells to pre-plated compounds. Plates were incubated at 37° C./5% CO2/90% relative humidity for ˜72 hrs to permit genomic replication, and infected cells were lysed by the addition of an equal volume of lysis buffer (10 mM Tris-HCl, pH 8, 50 mM KCl, 2 mM MgC12, 0.45% NP-40, 0.45% Tween-20, and 100 μg/ml proteinase K). An aliquot of the lysate was transferred to a 384-well PCR plate and incubated at 56° C. for 1 hour and then at 95° C. for 10 min. Levels of a viral gene were measured in 10 ul qPCR assays using TaqMan® Gene Expression Master Mix (Applied Biosystems), and an 7900HT Fast Real-Time PCR System with 384-Well Block Module. 7-point, serial 10-fold dilutions of a plasmid standard were run on each plate to generate a standard curve, and genome copies numbers were calculated by plotting experimental Ct onto linear regression of the standard curve. Compound effects on viral genome copy number were normalized to the window defined by the controls. Calculated % effects were fit using a 4-parameter algorithm, and ECso was reported.
HSV-1: Strain F […] was assayed in Vero or MRC5 cells and was used at 0.0005-0.004 pfu/cell in growth medium. Primer-probe set was Thermo Fisher Assay ID=AIBJZIB
On the technique in general: Quantitative PCR measures a nucleic acid by following its amplification.

In assay [2] the test system is HCMV Strain AD169. As to the kind of experiment: Viral qPCR assay, HCMV. The following applies: Human betaherpesvirus 5, AD169, MRC5, 72 h, MRC-5 cells, 0.05-0.1 pfu/cell, growth media or 50% fetal bovine serum, viral genome copies by qPCR, read-out: CMV Cell (EC50). Type of assay: cell-based, Human cytomegalovirus. On the procedure: as §1, §2
HCMV: Strain AD169 Street was assayed in MRC-5 cells and was used at 0.05-0.1 pfu/cell. The assays were performed in either growth media or in the same media with 50% fetal bovine serum. Primer-probe set was Thermo Fisher Assay ID=AIFATFK.

The subject of assay [3] is VZV. Put plainly: Viral qPCR assay, VZV. The format is cell-based, varicella zoster virus. The following applies: Human alphaherpesvirus 3, 72 h, MeWo or MRC5 cells, 0.04-0.1 pfu/cell, growth medium, viral genome copies by qPCR. As for the experimental part: as §1, §2
VZV: Strain Street was maintained as an infected cell stock in MRC-5 cells. It was assayed in MeWo or MRC5 cells and was used at 0.04-0.1 pfu/cell. The assays were performed in growth medium. Primer-probe set was Thermo Fisher Assay ID=AIPAEXQ.

Assay [4] deals with T1, Human cytomegalovirus DNA polymerase (Human cytomegalovirus, UniProt P08546).
T1 construct: made in house; host or cells: SF21 insect cells (baculovirus vector)
As to the kind of experiment: CMV polymerase assay (AlphaLISA). Type of assay: biochemical. The following applies: HCMV polymerase 0.2 nM; 30 min pre-incubation; 60 min at 37° C.; read-out: CMV (IC50). On the procedure:
Human cytomegalovirus and varicella zoster virus DNA polymerases were expressed via baculovirus vector in SF21 cells and purified. Heterodimeric nucleic acid substrate used in the herpesvirus polymerase reactions was generated by annealing a 59-mer template to a 17-mer digoxigenin-labeled primer. Polymerase (HCMV final concentration of 0.2 nM; VZV final concentration of 0.4 nM) was combined with an inhibitor compound or DMSO in assay buffer (10 mM HEPES, pH 7.5, 25 mM KCl, 25 mM NaCl, 5 mM MgCl2, 5% glycerol, 0.67 mg/ml bovine serum albumin, and 1 mM tris(2-carboxyethyl)phosphine), and this mixture was pre-incubated for 30 minutes at room temperature in 384-well microtiter plates. The polymerization reaction was initiated by the addition of template/primer substrate (final concentration: 1.6 nM), and dNTPs (final concentration: 24 nM dCTP, 24 nMdGTP, 16 nM dATP, 16 nM dTTP, and 0.8 nM biotin-dUTP). After 60 min incubation at 37° C., reactions were terminated with quench buffer (25 mM HEPES pH 7.5, 100 mM NaCl, 0.25% Tween-20, 12 mM EDTA, and 1 mg/ml bovine serum albumin). Incorporation of biotinylated UTP was detected with 2.5-5 ug/ml anti-DIG AlphaLISA acceptor beads and 5-10 ug/ml streptavidin AlphaLISA donor beads (PerkinElmer). Compound effects were normalized to the window defined by the controls (DMSO only and pre-quenched wells) and were fit using a 4-parameter algorithm to report an IC50.

T1 sequence (P08546 whole entry): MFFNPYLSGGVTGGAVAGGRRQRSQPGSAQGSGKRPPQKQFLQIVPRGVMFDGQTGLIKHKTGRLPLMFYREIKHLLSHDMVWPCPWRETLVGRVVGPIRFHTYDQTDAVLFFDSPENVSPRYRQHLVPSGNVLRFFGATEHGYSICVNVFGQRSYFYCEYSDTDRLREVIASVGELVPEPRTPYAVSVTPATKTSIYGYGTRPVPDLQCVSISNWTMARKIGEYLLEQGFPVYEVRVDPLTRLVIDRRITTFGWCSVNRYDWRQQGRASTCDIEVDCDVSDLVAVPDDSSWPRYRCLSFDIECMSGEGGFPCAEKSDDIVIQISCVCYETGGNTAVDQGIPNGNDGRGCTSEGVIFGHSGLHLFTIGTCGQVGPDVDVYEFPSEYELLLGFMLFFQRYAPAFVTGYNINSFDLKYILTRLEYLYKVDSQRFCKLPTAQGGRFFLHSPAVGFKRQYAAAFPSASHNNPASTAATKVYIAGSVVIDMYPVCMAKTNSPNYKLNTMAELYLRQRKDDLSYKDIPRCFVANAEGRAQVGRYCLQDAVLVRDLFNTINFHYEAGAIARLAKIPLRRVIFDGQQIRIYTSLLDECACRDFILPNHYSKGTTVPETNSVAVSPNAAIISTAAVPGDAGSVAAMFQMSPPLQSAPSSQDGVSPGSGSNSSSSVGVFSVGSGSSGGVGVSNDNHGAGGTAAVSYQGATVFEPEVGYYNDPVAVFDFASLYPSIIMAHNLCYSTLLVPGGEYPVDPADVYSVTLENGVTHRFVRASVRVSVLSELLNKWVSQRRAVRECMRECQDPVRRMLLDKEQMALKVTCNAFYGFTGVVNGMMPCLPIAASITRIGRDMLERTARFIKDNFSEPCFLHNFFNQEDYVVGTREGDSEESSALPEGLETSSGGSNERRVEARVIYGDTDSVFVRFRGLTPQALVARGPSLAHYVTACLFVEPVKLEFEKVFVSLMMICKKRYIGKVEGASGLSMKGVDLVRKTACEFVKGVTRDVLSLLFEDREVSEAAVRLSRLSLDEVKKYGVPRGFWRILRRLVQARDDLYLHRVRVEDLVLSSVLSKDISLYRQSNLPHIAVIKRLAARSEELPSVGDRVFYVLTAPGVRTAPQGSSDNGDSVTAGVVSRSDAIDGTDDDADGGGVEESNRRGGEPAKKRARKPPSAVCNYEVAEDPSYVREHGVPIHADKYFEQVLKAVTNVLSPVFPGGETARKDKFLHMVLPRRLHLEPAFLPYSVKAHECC

Consider `COc1nc(-c2cnn(C(F)F)c2)c(O[C@H]2CCN3C(=O)OC[C@@H]3C2)cc1C(=O)NCc1ccc(C#N)cc1F` [Compound 59], for which the concentration giving a half-maximal response (EC50) in assay [1] was determined as 80.6 nM; in assay [2] it was 324 nM; in assay [3], 160 nM. The IC50 in assay [4] stood at 3.25 nM.
For `COc1nc(-c2cccs2)c(O[C@H]2CCN3C(=O)OC[C@@H]3C2)cc1C(=O)NCc1ccc(Cl)cc1` [Compound 12], the EC50 in assay [1] was determined as 187 nM; in assay [2], 313 nM; in assay [3] it was 235 nM. Further, in assay [4], the IC50 came to 9.27 nM.
Turning to `CCN(CC)CCOc1nc(-c2cnn(C(F)F)c2)c(O[C@H]2CCN3C(=O)OC[C@@H]3C2)cc1C(=O)NCc1ccc(Cl)cc1` [Compound 96], the EC50 in assay [1] came to 148 nM; in assay [2], 75.9 nM; in assay [3] it was 400 nM. In addition, in assay [4], the IC50 was found to be 2.72 nM.
The corresponding values for `COc1nc(-c2ccc3[nH]ccc3c2)c(O[C@H]2CCN3C(=O)OC[C@@H]3C2)cc1C(=O)NCc1ccc(Cl)cc1` [Compound 39] are 658 nM, 886 nM, 1360 nM and 81.5 nM.
The corresponding values for `CCOc1nc(-c2cnn(C(F)F)c2)c(O[C@H]2CCN3C(=O)OC[C@@H]3C2)cc1C(=O)NCc1ccc(Cl)cc1` [Compound 101] are 320 nM, 524 nM, 578 nM and 42.6 nM.
`COc1nc(-c2cnc(N)nc2)c(O[C@H]2CCN3C(=O)OC[C@@H]3C2)cc1C(=O)NCc1ccc(Cl)cc1` [Compound 45]: the EC50 in assay [1] amounted to 50 nM; in assay [2] it was 111 nM; in assay [3] it was 141 nM. Besides, in assay [4], the IC50 was 2.3 nM.
The corresponding values for `COc1nc(C2CC3(CC(O)C3)C2)c(O[C@H]2CCN3C(=O)OC[C@@H]3C2)cc1C(=O)NCc1ccc(Cl)cc1` (stereo partly shown) [Compound 76] are 293 nM, 519 nM, 778 nM and 32.1 nM.
The corresponding values for `COc1nc(-c2ccc(=O)[nH]c2)c(O[C@H]2CCN3C(=O)OC[C@@H]3C2)cc1C(=O)NCc1ccc(Cl)cc1` [Compound 47] are 654 nM, 1300 nM, 2320 nM and 4.87 nM.
For `CC1(COc2nc(-c3cnn(C(F)F)c3)c(O[C@H]3CCN4C(=O)OC[C@@H]4C3)cc2C(=O)NCc2ccc(Cl)cc2)COC1` [Compound 90] the same measures were 180 nM, 131 nM, 286 nM and 9.83 nM.
As for `COc1nc(-c2cnn(C(C)(C)C)c2)c(O[C@H]2CCN3C(=O)OC[C@@H]3C2)cc1C(=O)NCc1ccc(Cl)cc1` [Compound 11], the EC50 came out at 456 nM in assay [1], 653 nM in assay [2] and 1270 nM in assay [3]. Besides, the IC50 in assay [4] was found to be 20.3 nM.
The corresponding values for `COc1nc(-c2cnn(CCO)c2)c(O[C@H]2CCN3C(=O)OC[C@@H]3C2)cc1C(=O)NCc1ccc(Cl)cc1` [Compound 32] are 52 nM, 103 nM, 106 nM and 0.705 nM.
The corresponding values for `COc1nc(-c2cc3ccccc3o2)c(O[C@H]2CCN3C(=O)OC[C@@H]3C2)cc1C(=O)NCc1ccc(Cl)cc1` [Compound 20] are 1440 nM, 587 nM, 1870 nM and 25.3 nM.
For `COc1nc(-c2cnc3[nH]ccc3c2)c(O[C@H]2CCN3C(=O)OC[C@@H]3C2)cc1C(=O)NCc1ccc(Cl)cc1` [Compound 41] the same measures were 494 nM, 606 nM, 418 nM and 17 nM.
For the compound `COc1nc(-c2ccc(N)nc2)c(O[C@H]2CCN3C(=O)OC[C@@H]3C2)cc1C(=O)NCc1ccc(Cl)cc1` [Compound 36], the EC50 in assay [1] was 82 nM; in assay [2], 175 nM; in assay [3] it was 92.3 nM. The IC50 in assay [4] amounted to 3.38 nM.
The corresponding values for `COc1nc(-c2ccc(C)o2)c(O[C@H]2CCN3C(=O)OC[C@@H]3C2)cc1C(=O)NCc1ccc(Cl)cc1` [Compound 13] are 229 nM, 457 nM, 307 nM and 16.2 nM.
Take `COc1csc(-c2nc(OC)c(C(=O)NCc3ccc(Cl)cc3)cc2O[C@H]2CCN3C(=O)OC[C@@H]3C2)c1` [Compound 34]: the results for the EC50 in assay [1], in assay [2] and in assay [3] were 260 nM, 421 nM and 1920 nM, respectively. Also, the IC50 in assay [4] was determined as 8.26 nM.
For `COc1nc(-c2ccoc2)c(O[C@H]2CCN3C(=O)OC[C@@H]3C2)cc1C(=O)NCc1ccc(Cl)cc1` [Compound 17] the same measures were 186 nM, 317 nM, 244 nM and 10.7 nM.
For `COc1nc(-c2cc3ccccc3[nH]2)c(O[C@H]2CCN3C(=O)OC[C@@H]3C2)cc1C(=O)NCc1ccc(Cl)cc1` [Compound 26] the same measures were 174 nM, 372 nM, 208 nM and 5.8 nM.
With `NC(=O)CCOc1nc(-c2cnn(C(F)F)c2)c(O[C@H]2CCN3C(=O)OC[C@@H]3C2)cc1C(=O)NCc1ccc(Cl)cc1` [Compound 100], the EC50 in assay [1] was 213 nM; in assay [2] it was 47.4 nM; in assay [3] it was 451 nM. Further, the IC50 in assay [4] is 3.17 nM.

Broadly, the EC50 is the concentration giving half of the maximal effect. For orientation: IC50 means the concentration that inhibits the measured activity by half.
